Calls of active or inactive are those of the source. The rule behind the calls is not given here.
Columns and labels:
Assay type in all cases: cell-based
[1] = target: T1, Toll-like receptor 4 (Mus musculus) (UniProt Q9QUK6); assay: Inhibition of TLR4-mediated NF-kappaB signaling pathway in BALB/c mouse RAW264.7 cells assessed as suppression of LPS-stimulated PGE2 production at 0.5 to 5 ug/ml preincubated for 1 hr followed by LPS challenge measured after 6 hrs by immunoblot analysis in presence of HEA
T1 sequence (whole entry): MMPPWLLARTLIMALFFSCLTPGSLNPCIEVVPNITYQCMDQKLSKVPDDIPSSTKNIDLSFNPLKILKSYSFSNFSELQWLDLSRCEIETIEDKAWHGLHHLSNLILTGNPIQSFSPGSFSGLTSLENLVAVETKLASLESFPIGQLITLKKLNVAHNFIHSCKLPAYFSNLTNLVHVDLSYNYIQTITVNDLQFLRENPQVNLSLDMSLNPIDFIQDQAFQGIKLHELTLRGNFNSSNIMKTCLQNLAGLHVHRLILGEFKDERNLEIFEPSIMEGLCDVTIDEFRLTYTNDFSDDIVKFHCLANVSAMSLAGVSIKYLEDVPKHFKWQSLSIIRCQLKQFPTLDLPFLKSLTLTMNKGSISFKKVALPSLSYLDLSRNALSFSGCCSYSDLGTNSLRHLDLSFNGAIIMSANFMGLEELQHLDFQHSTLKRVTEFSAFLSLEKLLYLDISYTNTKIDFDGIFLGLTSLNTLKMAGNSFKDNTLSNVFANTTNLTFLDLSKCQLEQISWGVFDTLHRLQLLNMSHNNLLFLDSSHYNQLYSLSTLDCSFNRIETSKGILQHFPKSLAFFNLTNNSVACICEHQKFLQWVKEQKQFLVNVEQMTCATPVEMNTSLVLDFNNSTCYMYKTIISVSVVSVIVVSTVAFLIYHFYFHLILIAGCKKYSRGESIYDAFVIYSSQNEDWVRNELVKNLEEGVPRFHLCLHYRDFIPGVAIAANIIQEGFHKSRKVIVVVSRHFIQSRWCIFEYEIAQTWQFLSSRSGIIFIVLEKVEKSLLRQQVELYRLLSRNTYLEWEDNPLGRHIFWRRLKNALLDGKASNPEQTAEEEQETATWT

[2] = target: T1, Toll-like receptor 4 (Mus musculus); assay: Inhibition of TLR4-mediated NF-kappaB signaling pathway in BALB/c mouse RAW264.7 cells assessed as suppression of LPS-stimulated TNF-alpha production at 2.5 to 10 ug/ml preincubated for 1 hr followed by LPS challenge measured after 6 hrs by immunoblot analysis
[3] = target: T1, Toll-like receptor 4 (Mus musculus); assay: Inhibition of TLR4-mediated NF-kappaB signaling pathway in BALB/c mouse RAW264.7 cells assessed as suppression of LPS-stimulated PGE2 production at 2.5 to 10 ug/ml preincubated for 1 hr followed by LPS challenge measured after 6 hrs by immunoblot analysis
[4] = target: T1, Toll-like receptor 4 (Mus musculus); assay: Inhibition of TLR4-mediated NF-kappaB signaling pathway in BALB/c mouse RAW264.7 cells assessed as suppression of LPS-stimulated TNF-alpha production at 0.5 to 5 ug/ml preincubated for 1 hr followed by LPS challenge measured after 6 hrs by immunoblot analysis in presence of HEA
[5] = target: T1, Toll-like receptor 4 (Mus musculus); assay: Inhibition of TLR4-mediated NF-kappaB signaling pathway in BALB/c mouse RAW264.7 cells assessed as suppression of LPS-stimulated TNF-alpha production at 0.5 to 5 ug/ml preincubated for 1 hr followed by LPS challenge measured after 6 hrs by immunoblot analysis in presence of cordycepin
[6] = target: T1, Toll-like receptor 4 (Mus musculus); assay: Inhibition of TLR4-mediated NF-kappaB signaling pathway in BALB/c mouse RAW264.7 cells assessed as suppression of LPS-stimulated PGE2 production at 0.5 to 5 ug/ml preincubated for 1 hr followed by LPS challenge measured after 6 hrs by immunoblot analysis in presence of cordycepin
[7] = target: T1, Toll-like receptor 4 (Mus musculus); assay: Inhibition of TLR4-mediated NF-kappaB signaling pathway in BALB/c mouse RAW264.7 cells assessed as suppression of LPS-stimulated PGE2 production at 0.5 to 5 ug/ml preincubated for 1 hr followed by LPS challenge measured after 6 hrs by immunoblot analysis in presence of adenosine
[8] = target: T1, Toll-like receptor 4 (Mus musculus); assay: Inhibition of TLR4-mediated NF-kappaB signaling pathway in BALB/c mouse RAW264.7 cells assessed as suppression of LPS-stimulated TNF-alpha production at 1 to 10 ug/ml preincubated for 1 hr followed by LPS challenge measured after 6 hrs by immunoblot analysis
[9] = target: T1, Toll-like receptor 4 (Mus musculus); assay: Inhibition of TLR4-mediated NF-kappaB signaling pathway in BALB/c mouse RAW264.7 cells assessed as suppression of LPS-stimulated PGE2 production at 1 to 10 ug/ml preincubated for 1 hr followed by LPS challenge measured after 6 hrs by immunoblot analysis
[10] = target: T1, Toll-like receptor 4 (Mus musculus); assay: Inhibition of TLR4-mediated NF-kappaB signaling pathway in BALB/c mouse RAW264.7 cells assessed as suppression of LPS-stimulated TNF-alpha production at 0.5 to 5 ug/ml preincubated for 1 hr followed by LPS challenge measured after 6 hrs by immunoblot analysis in presence of adenosine

| SMILES | inhibition [1] | inhibition [2] | inhibition [3] | inhibition [4] | inhibition [5] | inhibition [6] | inhibition [7] | inhibition [8] | inhibition [9] | inhibition [10] |
| --- | --- | --- | --- | --- | --- | --- | --- | --- | --- | --- |
| Nc1ncnc2c1ncn2[C@@H]1O[C@H](CO)[C@@H](O)[C@H]1O | inactive | Active | Active | inactive | inactive | inactive | – | – | – | – |
| Nc1ncnc2c1ncn2[C@@H]1O[C@H](CO)C[C@H]1O | inactive | – | – | inactive | – | – | inactive | Active | Active | inactive |

— ChEMBL document CHEMBL3632615, “N(6)-(2-Hydroxyethyl)adenosine in the Medicinal Mushroom Cordyceps cicadae Attenuates Lipopolysaccharide-Stimulated Pro-inflammatory Responses by Suppressing TLR4-Mediated NF-κB Signaling Pathways” (J Nat Prod, 2015)
